Experiments:
barnyardgrass [1] = experiment: Test A pre-/postemergence herbicide test; format: in vivo, Echinochloa crus-galli
Procedure, shortened: (§1)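 Scoring was visual, relative to untreated controls, on a 0–100 scale after about 10 greenhouse days. Preemergence treatment used a directed soil spray over seeded loam/sand; postemergence treatment targeted one- to two-leaf plants of 2–10 cm.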

kochia = experiment: Test A pre-/postemergence herbicide test; format: in vivo, Kochia scoparia
Procedure, shortened: as §1

ragweed = experiment: Test A pre-/postemergence herbicide test; format: in vivo, Ambrosia elatior
Procedure, shortened: as §1

ryegrass, Italian = experiment: Test A pre-/postemergence herbicide test; format: in vivo, Lolium multiflorum
Procedure, shortened: as §1

giant foxtail = experiment: Test A pre-/postemergence herbicide test; format: in vivo, Setaria faberii
Procedure, shortened: as §1

pigweed = experiment: Test A pre-/postemergence herbicide test; format: in vivo, Amaranthus retroflexus
Procedure, shortened: as §1

wheat = experiment: Test A pre-/postemergence herbicide test; format: in vivo, Triticum aestivum; conditions: Postemergence
Procedure, shortened: as §1

corn = experiment: Test A pre-/postemergence herbicide test; format: in vivo, Zea mays; conditions: Postemergence
Procedure, shortened: as §1

blackgrass = experiment: Test A postemergence herbicide test; format: in vivo, Alopecurus myosuroides
Procedure, shortened: (§2)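 Visual injury rating, 0 (no effect) to 100 (complete control), versus untreated controls ~10 days after treatment. Postemergence spray applied at one- to two-leaf stage, plants 2–10 cm tall, potted in loam soil/sand. Greenhouse-held.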

galium = experiment: Test A postemergence herbicide test; format: in vivo, Galium aparine
Procedure, shortened: as §2

rice = experiment: Test B flooded paddy test; format: in vivo, Oryza sativa; conditions: 500 g ai/ha, Flood; scale of 0 to 100 where 0 is no effect and 100 is complete control
Procedure, shortened: (§3)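 In-water application to pots flooded 3 cm deep, plants at 2-leaf stage. Held in greenhouse 13–15 days at constant flood depth. Scored 0–100 by eye against controls.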

sedge, umbrella = experiment: Test B flooded paddy test; format: in vivo, Cyperus difformis; conditions: 500 g ai/ha, Flood; scale of 0 to 100 where 0 is no effect and 100 is complete control
Procedure, shortened: as §3

ducksalad = experiment: Test B flooded paddy test; format: in vivo, Heteranthera limosa; conditions: 500 g ai/ha, Flood; scale of 0 to 100 where 0 is no effect and 100 is complete control
Procedure, shortened: as §3

barnyardgrass [2] = experiment: Test B flooded paddy test; format: in vivo, Echinochloa crus-galli; conditions: 500 g ai/ha, Flood; scale of 0 to 100 where 0 is no effect and 100 is complete control
Procedure, shortened: as §3

[3] = 125 g ai/ha, visual rating, 0 to 100 scale, 0 no effect, 100 complete control, approximately 10 days, preemergence
[4] = Postemergence, 125 g ai/ha, 0 to 100 scale, 0 no effect, 100 complete control
[5] = preemergence, 500 g ai/ha, 0 to 100 scale (0 no effect, 100 complete control)
[6] = preemergence, 500 g ai/ha, 0 to 100 scale
[7] = 125 g ai/ha, 0 to 100 scale, 0 no effect, 100 complete control
[8] = Postemergence, 125 g ai/ha, visual rating on 0 to 100 scale (0 no effect, 100 complete control), approx. 10 days
[9] = Postemergence, 500 g ai/ha, 0 to 100 scale (0 no effect, 100 complete control)
[10] = Preemergence, 125 g ai/ha, 0 to 100 scale where 0 is no effect and 100 is complete control
[11] = preemergence, 500 g ai/ha, 0 to 100 scale, 0 is no effect and 100 is complete control
[12] = 125 g ai/ha, visual rating on 0 to 100 scale (0 no effect, 100 complete control), approx. 10 days
[13] = 500 g ai/ha, 0 to 100 scale (0 no effect, 100 complete control)

## Cc1ccc(C2CNC(=O)C2C(=O)Nc2ccccc2F)cc1F (racemic) [Compound 144]
Barnyardgrass [1]; [3]
  Plant response rating, Barnyardgrass: 90
Barnyardgrass [1]; [4]
  Plant response rating, Barnyardgrass: 90
Barnyardgrass [1]; Postemergence, 500 g ai/ha
  Barnyardgrass plant response rating (0 to 100 scale, 0 is no effect, 100 is complete control): 90
Barnyardgrass [1]; [5]
  Plant response rating, Barnyardgrass: 90
kochia; [3]
  Plant response rating, Kochia: 0
kochia; [4]
  Plant response rating, Kochia: 0
kochia; Postemergence, 500 g ai/ha
  Kochia plant response rating (0 to 100 scale, 0 is no effect, 100 is complete control): 0
kochia; [6]
  Plant response rating, Kochia: 0
ragweed; [3]
  Plant response rating, Ragweed: 0
ragweed; [4]
  Plant response rating, Ragweed: 0
ragweed; Postemergence, 500 g ai/ha
  Ragweed plant response rating (0 to 100 scale, 0 is no effect, 100 is complete control): 0
ragweed; [6]
  Plant response rating, Ragweed: 0
ryegrass, Italian; [3]
  Plant response rating, Ryegrass, Italian: 0
ryegrass, Italian; [4]
  Plant response rating, Ryegrass, Italian: 0
ryegrass, Italian; Postemergence, 500 g ai/ha
  Ryegrass, Italian plant response rating (0 to 100 scale, 0 is no effect, 100 is complete control): 40
ryegrass, Italian; [6]
  Plant response rating, Ryegrass, Italian: 20
Giant foxtail; [3]
  Plant response rating, Foxtail, Giant: 60
Giant foxtail; [4]
  Plant response rating, Foxtail, Giant: 40
Giant foxtail; Postemergence, 500 g ai/ha
  Foxtail, Giant plant response rating (0 to 100 scale, 0 is no effect, 100 is complete control): 70
Giant foxtail; [6]
  Plant response rating, Foxtail, Giant: 80
pigweed; [3]
  Plant response rating, Pigweed: 0
pigweed; [4]
  Plant response rating, Pigweed: 0
pigweed; Postemergence, 500 g ai/ha
  Pigweed plant response rating (0 to 100 scale, 0 is no effect, 100 is complete control): 0
pigweed; [6]
  Plant response rating, Pigweed: 0
wheat; [7]
  Plant response rating, Wheat: 0
wheat; 500 g ai/ha
  Wheat plant response rating (0 to 100 scale, 0 is no effect, 100 is complete control): 0
corn; [7]
  Plant response rating, Corn: 0
corn; 500 g ai/ha
  Corn plant response rating (0 to 100 scale, 0 is no effect, 100 is complete control): 20
blackgrass; [7]
  Plant response rating, Blackgrass: 0
blackgrass; 500 g ai/ha
  Blackgrass plant response rating (0 to 100 scale, 0 is no effect, 100 is complete control): 30
galium; [7]
  Plant response rating, Galium: 10
galium; 500 g ai/ha
  Galium plant response rating (0 to 100 scale, 0 is no effect, 100 is complete control): 70
rice
  Plant response rating, Rice: 0
sedge, umbrella
  Plant response rating, Sedge, Umbrella: 0
ducksalad
  Plant response rating, Ducksalad: 100
Barnyardgrass [2]
  Plant response rating, Barnyardgrass: 65

## CSc1cccc(C2CNC(=O)C2C(=O)Nc2ccc(F)cc2F)c1 (stereo not drawn) [Compound 288]
Barnyardgrass [1]; [8]
  Plant response rating, Barnyardgrass: 20
Barnyardgrass [1]; [9]
  Plant response rating, Barnyardgrass: 80
Barnyardgrass [1]; [10]
  Plant response rating, Barnyardgrass: 30
Barnyardgrass [1]; [11]
  Plant response rating, Barnyardgrass: 70
kochia; [8]
  Plant response rating, Kochia: 0
kochia; [9]
  Plant response rating, Kochia: 20
kochia; [10]
  Plant response rating, Kochia: 30
kochia; [11]
  Plant response rating, Kochia: 50
ragweed; [8]
  Plant response rating, Ragweed: 0
ragweed; [9]
  Plant response rating, Ragweed: 0
ragweed; [10]
  Plant response rating, Ragweed: 0
ragweed; [11]
  Plant response rating, Ragweed: 0
ryegrass, Italian; [8]
  Plant response rating, Ryegrass, Italian: 0
ryegrass, Italian; [9]
  Plant response rating, Ryegrass, Italian: 0
ryegrass, Italian; [10]
  Plant response rating, Ryegrass, Italian: 0
ryegrass, Italian; Preemergence, 500 g ai/ha, visual rating on 0 to 100 scale (0 no effect, 100 complete control)
  Ryegrass, Italian plant response rating: 20
Giant foxtail; [8]
  Plant response rating, Foxtail, Giant: 20
Giant foxtail; [9]
  Plant response rating, Foxtail, Giant: 30
Giant foxtail; [10]
  Plant response rating, Foxtail, Giant: 30
Giant foxtail; [11]
  Plant response rating, Foxtail, Giant: 90
pigweed; [8]
  Plant response rating, Pigweed: 0
pigweed; [9]
  Plant response rating, Pigweed: 0
pigweed; [10]
  Plant response rating, Pigweed: 0
pigweed; [11]
  Plant response rating, Pigweed: 0
wheat; [12]
  Plant response rating, Wheat: 0
wheat; [13]
  Plant response rating, Wheat: 0
corn; [12]
  Plant response rating, Corn: 0
corn; [13]
  Plant response rating, Corn: 0
blackgrass; [12]
  Plant response rating, Blackgrass: 0
blackgrass; [13]
  Plant response rating, Blackgrass: 0
galium; [12]
  Plant response rating, Galium: 0
galium; [13]
  Plant response rating, Galium: 0
rice
  Plant response rating, Rice: 0
sedge, umbrella
  Plant response rating, Sedge, Umbrella: 0
ducksalad
  Plant response rating, Ducksalad: 65
Barnyardgrass [2]
  Plant response rating, Barnyardgrass: 20

## Cc1cc(C2CNC(=O)C2C(=O)Nc2ccccc2Cl)ccc1F (racemic) [Compound 143]
Barnyardgrass [1]; [3]
  Plant response rating, Barnyardgrass: 60
Barnyardgrass [1]; [4]
  Plant response rating, Barnyardgrass: 50
Barnyardgrass [1]; Postemergence, 500 g ai/ha
  Barnyardgrass plant response rating (0 to 100 scale, 0 is no effect, 100 is complete control): 90
Barnyardgrass [1]; [5]
  Plant response rating, Barnyardgrass: 90
kochia; [3]
  Plant response rating, Kochia: 30
kochia; [4]
  Plant response rating, Kochia: 0
kochia; Postemergence, 500 g ai/ha
  Kochia plant response rating (0 to 100 scale, 0 is no effect, 100 is complete control): 0
kochia; [6]
  Plant response rating, Kochia: 30
ragweed; [3]
  Plant response rating, Ragweed: 0
ragweed; [4]
  Plant response rating, Ragweed: 0
ragweed; Postemergence, 500 g ai/ha
  Ragweed plant response rating (0 to 100 scale, 0 is no effect, 100 is complete control): 0
ragweed; [6]
  Plant response rating, Ragweed: 0
ryegrass, Italian; [3]
  Plant response rating, Ryegrass, Italian: 0
ryegrass, Italian; [4]
  Plant response rating, Ryegrass, Italian: 0
ryegrass, Italian; Postemergence, 500 g ai/ha
  Ryegrass, Italian plant response rating (0 to 100 scale, 0 is no effect, 100 is complete control): 0
ryegrass, Italian; [6]
  Plant response rating, Ryegrass, Italian: 0
Giant foxtail; [3]
  Plant response rating, Foxtail, Giant: 30
Giant foxtail; [4]
  Plant response rating, Foxtail, Giant: 20
Giant foxtail; Postemergence, 500 g ai/ha
  Foxtail, Giant plant response rating (0 to 100 scale, 0 is no effect, 100 is complete control): 30
Giant foxtail; [6]
  Plant response rating, Foxtail, Giant: 90
pigweed; [3]
  Plant response rating, Pigweed: 0
pigweed; [4]
  Plant response rating, Pigweed: 0
pigweed; Postemergence, 500 g ai/ha
  Pigweed plant response rating (0 to 100 scale, 0 is no effect, 100 is complete control): 0
pigweed; [6]
  Plant response rating, Pigweed: 0
wheat; [7]
  Plant response rating, Wheat: 0
wheat; 500 g ai/ha
  Wheat plant response rating (0 to 100 scale, 0 is no effect, 100 is complete control): 0
corn; [7]
  Plant response rating, Corn: 0
corn; 500 g ai/ha
  Corn plant response rating (0 to 100 scale, 0 is no effect, 100 is complete control): 0
blackgrass; [7]
  Plant response rating, Blackgrass: 0
blackgrass; 500 g ai/ha
  Blackgrass plant response rating (0 to 100 scale, 0 is no effect, 100 is complete control): 0
galium; [7]
  Plant response rating, Galium: 0
galium; 500 g ai/ha
  Galium plant response rating (0 to 100 scale, 0 is no effect, 100 is complete control): 40
rice
  Plant response rating, Rice: 0
sedge, umbrella
  Plant response rating, Sedge, Umbrella: 0
ducksalad
  Plant response rating, Ducksalad: 100
Barnyardgrass [2]
  Plant response rating, Barnyardgrass: 35

From patent US10294202B2, “Pyrrolidinones as herbicides” (FMC Corporation, priority 2013, dated 2019)
